These results are taken from patent publication US20240374591A1, “CEREBLON BINDING COMPOUNDS, COMPOSITIONS THEREOF, AND METHODS OF TREATMENT THEREWITH” (CELGENE CORPORATION, priority 2021, published 2024).

Where a name gives a salt, the structure may show the parent alone.

For this test, the target named is T1, AR in VCaP cells (Homo sapiens, UniProt P10275).
T1 construct: endogenous in cells; host or cells: VCaP cells
T1 sequence (P10275 1-920): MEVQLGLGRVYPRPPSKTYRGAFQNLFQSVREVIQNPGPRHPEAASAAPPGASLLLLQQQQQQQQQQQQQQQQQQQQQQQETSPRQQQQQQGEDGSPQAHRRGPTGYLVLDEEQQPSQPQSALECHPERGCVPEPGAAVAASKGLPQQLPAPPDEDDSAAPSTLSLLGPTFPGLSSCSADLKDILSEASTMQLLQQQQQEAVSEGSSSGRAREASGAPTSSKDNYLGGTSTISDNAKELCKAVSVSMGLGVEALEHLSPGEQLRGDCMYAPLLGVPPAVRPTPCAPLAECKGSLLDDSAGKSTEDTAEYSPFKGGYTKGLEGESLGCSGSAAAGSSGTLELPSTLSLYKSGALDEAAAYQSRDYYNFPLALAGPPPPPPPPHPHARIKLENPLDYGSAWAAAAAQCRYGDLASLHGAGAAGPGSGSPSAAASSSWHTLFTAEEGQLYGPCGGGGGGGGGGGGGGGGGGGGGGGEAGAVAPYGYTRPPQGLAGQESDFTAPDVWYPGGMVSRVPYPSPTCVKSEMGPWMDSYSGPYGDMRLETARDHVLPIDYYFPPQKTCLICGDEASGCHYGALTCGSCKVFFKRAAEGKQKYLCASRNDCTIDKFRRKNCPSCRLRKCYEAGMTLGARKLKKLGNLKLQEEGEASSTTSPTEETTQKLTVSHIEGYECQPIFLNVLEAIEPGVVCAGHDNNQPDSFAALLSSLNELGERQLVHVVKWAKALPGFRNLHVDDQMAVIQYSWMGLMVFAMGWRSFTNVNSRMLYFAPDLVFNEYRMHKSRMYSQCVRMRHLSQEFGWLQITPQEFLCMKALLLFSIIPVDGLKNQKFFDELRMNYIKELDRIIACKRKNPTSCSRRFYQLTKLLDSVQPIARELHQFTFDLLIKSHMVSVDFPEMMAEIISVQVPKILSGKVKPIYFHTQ
In words: VCAP AR Degradation Assay (AR ELISA, 24 h). It counts as cell-based. The settings on record: for DC50: concentration giving 50% AR degradation vs DMSO control; for remaining activity at up to 5 µM: lowest measured AR level normalized to DMSO control, top concentration 5 μM, read-out: Y. The method, then:
VCAP AR Degradation Assay. Test compounds were pre-dispensed into a Corning CellBind 96-well clear bottom plate (Cat #3300) using an acoustic dispenser to make a 10-point concentration series at 1:3 dilution for each compound. The final top concentration of each compound was 5 μM. DMSO at a final concentration of 0.1% was used as a control. VCaP cells cultured in DMEM with 8% fetal bovine serum (FBS) were seeded at 50K cells per well in a 200 μL volume into the compound plate and incubated at 37° C. in a CO2 incubator for 24 h. The medium was carefully removed from the cells and the plate was placed on ice. One hundred μL of ice-cold 1× cell lysis buffer from Cell Signaling Technologies (Cat #9803) was added to each well of the cells and the plate was incubated at 4° C. on a shaker for 1 h. Fifteen μL of cell lysate was used for AR ELISA detection using a PathScan Total Sandwich AR ELISA kit (Cell Signaling Technology, Cat #12580). AR levels in compound-treated wells were normalized to that of DMSO control and expressed as percent of control (PoC) (y). A Four Parameter Logistic Model (Sigmoidal Dose-Response Model) was used to determine the compound's DC50, and EC50, using the following equation: […]
The lowest measured AR level normalized to DMSO control in response to compound treatment, termed Y value, was used to characterize the compound-mediated AR degradation efficiency.

For the molecule `C[C@@H]1CN(CCO[C@H]2CC[C@H](N3C(=S)N(c4ccc(C#N)c(C(F)(F)F)c4)C(=O)C3(C)C)CC2)C[C@H](C)N1CC(=O)Nc1ccc(N2CCC(=O)NC2=O)nc1` [Cmpd 1, 2-((2R,6S)-4-(2-((trans-4-(3-(4-Cyano-3-(trifluoromethyl)phenyl)-5,5-dimethyl-4-oxo-2-thioxoimidazolidin-1-yl)cyclohexyl)oxy)ethyl)-2,6-dimethylpiperazin-1-yl)-N-(6-(2,4-dioxotetrahydropyrimidin-1(2H)-yl)pyridin-3-yl)acetamide], the 50% degradation concentration (DC50) lay within 100 to 10000 nM and the remaining activity at up to 5 µM is 30 to 70%.

On to `C[C@@H]1CN(CCO[C@H]2CC[C@H](N3C(=S)N(c4ccc(C#N)c(C(F)(F)F)c4)C(=O)C3(C)C)CC2)C[C@H](C)N1CC(=O)Nc1ccc(C2CCC(=O)NC2=O)nc1` (stereo partly drawn) [Cmpd 2, 2-((2R,6S)-4-(2-((trans-4-(3-(4-Cyano-3-(trifluoromethyl)phenyl)-5,5-dimethyl-4-oxo-2-thioxoimidazolidin-1-yl)cyclohexyl)oxy)ethyl)-2,6-dimethylpiperazin-1-yl)-N-(6-(2,6-dioxopiperidin-3-yl)pyridin-3-yl)acetamide hydrochloride], for which the 50% degradation concentration (DC50) was in the range of 5 to 10 nM and the remaining activity at up to 5 µM was in the range of 30 to 70%.

For the molecule `C[C@@H]1CN(CCC[C@H]2CC[C@H](N3C(=S)N(c4ccc(C#N)c(C(F)(F)F)c4)C(=O)C3(C)C)CC2)C[C@H](C)N1CC(=O)Nc1ccc(C2CCC(=O)NC2=O)nc1` (stereo partly drawn) [Cmpd 3, 2-((2R,6S)-4-(3-(trans-4-(3-(4-Cyano-3-(trifluoromethyl)phenyl)-5,5-dimethyl-4-oxo-2-thioxoimidazolidin-1-yl)cyclohexyl)propyl)-2,6-dimethylpiperazin-1-yl)-N-(6-(2,6-dioxopiperidin-3-yl)pyridin-3-yl)acetamide], the DC50 lay within 5 to 10 nM and the remaining activity at up to 5 µM lay in the range of 30 to 70%.

Take `C[C@@H]1CN(CCCO[C@H]2CC[C@H](N3C(=S)N(c4cnc(C#N)c(C(F)(F)F)c4)C(=O)C3(C)C)CC2)C[C@H](C)N1CC(=O)Nc1ccc(C2CCC(=O)NC2=O)nc1` (stereo partly drawn) [Cmpd 4, 2-((2R,6S)-4-(3-((trans-4-(3-(6-Cyano-5-(trifluoromethyl)pyridin-3-yl)-5,5-dimethyl-4-oxo-2-thioxoimidazolidin-1-yl)cyclohexyl)oxy)propyl)-2,6-dimethylpiperazin-1-yl)-N-(6-(2,6-dioxopiperidin-3-yl)pyridin-3-yl)acetamide hydrochloride]: the DC50 is not above 5 nM and the remaining activity at up to 5 µM lay in the range of 20 to 30%.

Regarding `C[C@@H]1CN(CCCO[C@H]2CC[C@H](N3C(=S)N(c4ccc(C#N)c(C(F)(F)F)c4)C(=O)C3(C)C)CC2)C[C@H](C)N1CC(=O)Nc1ccc(C2CCC(=O)NC2=O)nc1` (stereo partly drawn) [Cmpd 5, 2-((2R,6S)-4-(3-((trans-4-(3-(4-Cyano-3-(trifluoromethyl)phenyl)-5,5-dimethyl-4-oxo-2-thioxoimidazolidin-1-yl)cyclohexyl)oxy)propyl)-2,6-dimethylpiperazin-1-yl)-N-(6-(2,6-dioxopiperidin-3-yl)pyridin-3-yl)acetamide hydrochloride], the half-maximal degradation concentration (DC50) is not above 5 nM and the remaining activity at up to 5 µM is 20 to 30%.

As to `C[C@@H]1CN(CCO[C@H]2CC[C@H](N3C(=S)N(c4cnc(C#N)c(Cl)c4)C(=O)C3(C)C)CC2)C[C@H](C)N1CC(=O)Nc1ccc(C2CCC(=O)NC2=O)nc1` (stereo partly drawn) [Cmpd 6, 2-((2R,6S)-4-(2-((trans-4-(3-(5-Chloro-6-cyanopyridin-3-yl)-5,5-dimethyl-4-oxo-2-thioxoimidazolidin-1-yl)cyclohexyl)oxy)ethyl)-2,6-dimethylpiperazin-1-yl)-N-(6-(2,6-dioxopiperidin-3-yl)pyridin-3-yl)acetamide hydrochloride], the DC50 is not above 5 nM and the remaining activity at up to 5 µM was 20 to 30%.

Turning to `C[C@@H]1CN(CCCO[C@H]2CC[C@H](N3C(=S)N(c4ccc(C#N)c(Cl)c4)C(=O)C3(C)C)CC2)C[C@H](C)N1CC(=O)Nc1ccc(C2CCC(=O)NC2=O)nc1` (stereo partly drawn) [Cmpd 7, 2-((2R,6S)-4-(3-((trans-4-(3-(3-Chloro-4-cyanophenyl)-5,5-dimethyl-4-oxo-2-thioxoimidazolidin-1-yl)cyclohexyl)oxy)propyl)-2,6-dimethylpiperazin-1-yl)-N-(6-(2,6-dioxopiperidin-3-yl)pyridin-3-yl)acetamide hydrochloride], the DC50 is not above 5 nM and the remaining activity at up to 5 µM was in the range of 0 to 20%.

Regarding `C[C@@H]1CN(CCC[C@H]2CC[C@H](N3C(=S)N(c4cnc(C#N)c(C(F)(F)F)c4)C(=O)C3(C)C)CC2)C[C@H](C)N1CC(=O)Nc1ccc(C2CCC(=O)NC2=O)nc1` (stereo partly drawn) [Cmpd 8, 2-((2R,6S)-4-(3-(trans-4-(3-(6-Cyano-5-(trifluoromethyl)pyridin-3-yl)-5,5-dimethyl-4-oxo-2-thioxoimidazolidin-1-yl)cyclohexyl)propyl)-2,6-dimethylpiperazin-1-yl)-N-(6-(2,6-dioxopiperidin-3-yl)pyridin-3-yl)acetamide hydrochloride], the half-maximal degradation concentration (DC50) is not above 5 nM and the remaining activity at up to 5 µM is 20 to 30%.

For the molecule `C[C@@H]1CN(CCO[C@H]2CC[C@H](N3C(=S)N(c4ccc(C#N)c(C(F)(F)F)c4)C(=O)C3(C)C)CC2)C[C@H](C)N1CCC(=O)Nc1ccc(N2CCC(=O)NC2=O)nc1` [Cmpd 9, 3-((2R,6S)-4-(2-((trans-4-(3-(4-Cyano-3-(trifluoromethyl)phenyl)-5,5-dimethyl-4-oxo-2-thioxoimidazolidin-1-yl)cyclohexyl)oxy)ethyl)-2,6-dimethylpiperazin-1-yl)-N-(6-(2,4-dioxotetrahydropyrimidin-1(2H)-yl)pyridin-3-yl)propanamide], the 50% degradation concentration (DC50) was in the range of 10 to 100 nM and the remaining activity at up to 5 µM lay in the range of 30 to 70%.

Consider `C[C@@H]1CN(CCC[C@H]2CC[C@H](N3C(=S)N(c4ccc(C#N)c(Cl)c4)C(=O)C3(C)C)CC2)C[C@H](C)N1CC(=O)Nc1ccc(C2CCC(=O)NC2=O)nc1` (stereo partly drawn) [Cmpd 10, 2-((2R,6S)-4-(3-(trans-4-(3-(3-Chloro-4-cyanophenyl)-5,5-dimethyl-4-oxo-2-thioxoimidazolidin-1-yl)cyclohexyl)propyl)-2,6-dimethylpiperazin-1-yl)-N-(6-(2,6-dioxopiperidin-3-yl)pyridin-3-yl)acetamide hydrochloride], for which the DC50 is 10 to 100 nM and the remaining activity at up to 5 µM was 30 to 70%.

For the molecule `C[C@@H]1CN(CCC[C@H]2CC[C@H](N3C(=S)N(c4cnc(C#N)c(Cl)c4)C(=O)C3(C)C)CC2)C[C@H](C)N1CC(=O)Nc1ccc(C2CCC(=O)NC2=O)nc1` (stereo partly drawn) [Cmpd 11, 2-((2S,6R)-4-(3-(trans-4-(3-(5-Chloro-6-cyanopyridin-3-yl)-5,5-dimethyl-4-oxo-2-thioxoimidazolidin-1-yl)cyclohexyl)propyl)-2,6-dimethylpiperazin-1-yl)-N-(6-(2,6-dioxopiperidin-3-yl)pyridin-3-yl)acetamide hydrochloride], the half-maximal degradation concentration (DC50) was not above 5 nM and the remaining activity at up to 5 µM was 20 to 30%.

Take `C[C@@H]1CN(CCCO[C@H]2CC[C@H](N3C(=S)N(c4ccc(C#N)c(C(F)(F)F)c4)C(=O)C3(C)C)CC2)C[C@H](C)N1CC(=O)Nc1ccc(N2CCC(=O)NC2=O)nc1` [Cmpd 12, 2-((2R,6S)-4-(3-((trans-4-(3-(4-Cyano-3-(trifluoromethyl)phenyl)-5,5-dimethyl-4-oxo-2-thioxoimidazolidin-1-yl)cyclohexyl)oxy)propyl)-2,6-dimethylpiperazin-1-yl)-N-(6-(2,4-dioxotetrahydropyrimidin-1(2H)-yl)pyridin-3-yl)acetamide hydrochloride]: the 50% degradation concentration (DC50) is 100 to 10000 nM and the remaining activity at up to 5 µM was 30 to 70%.
